In patent publication US20100063065A1 (Inpharmatica Limited, priority 2005, published 2010):

Target: T1, PPARδ (Homo sapiens, UniProt Q03181)
T1 construct: fused to amino acids 147-441 of PPARδ downstream of CMV promoter; expressed in transfected cells; host or cells: HEK293 cells, transiently transfected with pFACMV-PPARδ using Fugene
T1 sequence (Q03181 147-441): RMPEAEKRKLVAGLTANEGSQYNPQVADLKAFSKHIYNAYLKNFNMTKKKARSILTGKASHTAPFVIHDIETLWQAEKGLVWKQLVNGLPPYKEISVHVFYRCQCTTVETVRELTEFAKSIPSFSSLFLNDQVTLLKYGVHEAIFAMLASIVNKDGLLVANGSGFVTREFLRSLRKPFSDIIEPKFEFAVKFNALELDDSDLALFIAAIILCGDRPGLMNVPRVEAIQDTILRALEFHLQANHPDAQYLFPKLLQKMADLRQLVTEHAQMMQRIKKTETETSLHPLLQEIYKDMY
Assay: Transactivation assay (PPARδ GAL4 assay) in transiently transfected HEK293 cells
Format: cell-based
Details: luciferase reporter, Table 2
Summary of the method: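 Luciferase luminescence after 24 h compound treatment (0-30 μM final, OptiMEM, 37° C./5% CO2) gave EC50 by sigmoidal fitting, with activity normalised to GW501516 as percent. Reporter system: transiently transfected HEK293 expressing GAL4 DNA-binding domain fused to human PPARδ aa 147-441, plus 5×GAL4-driven luciferase.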

SMILES	EC50 [nM]
CCc1cc(C(=O)c2ccc(OC(F)(F)F)cc2)c(NC(=O)C(C)(C)NCC(=O)O)s1 [Example 118, {1-[5-Ethyl-3-(4-trifluoromethoxy-benzoyl)-thiophen-2-ylcarbamoyl]-1-methyl-ethylamino}-acetic acid]	100 to 1000
CCc1cc(C(=O)c2ccc(OC(F)(F)F)cc2)c(NC(=O)C(C)(C)N2CCC[C@@H]2C(=O)O)s1 [Example 119, (R)-1-{1-[5-Ethyl-3-(4-trifluoromethoxy-benzoyl)-thiophen-2-ylcarbamoyl]-1-methyl-ethyl}-pyrrolidine-2-carboxylic acid]	100 to 1000
CCc1cc(C(=O)c2ccc(OC(F)(F)F)cc2)c(NC(=O)C(CC)NCC(=O)O)s1 (stereo not shown) [Example 121, {1-[5-Ethyl-3-(4-trifluoromethoxy-benzoyl)-thiophen-2-ylcarbamoyl]-propylamino}-acetic acid]	100 to 1000
CCc1cc(C(=O)c2ccc(OC(F)(F)F)cc2)c(NC(=O)C(C)N2CCC[C@@H]2C(=O)O)s1 (stereo partly drawn) [Example 123, (R)-1-{1-[5-Ethyl-3-(4-trifluoromethoxy-benzoyl)-thiophen-2-ylcarbamoyl]-ethyl}-pyrrolidine-2-carboxylic acid]	< 100
CCc1cc(C(=O)c2ccc(OC(F)(F)F)cc2)c(NC(=O)CN([C@@H](C)C(=O)O)S(C)(=O)=O)s1 [Example 126, (S)-2-({[5-Ethyl-3-(4-trifluoromethoxy-benzoyl)-thiophen-2-ylcarbamoyl]-methyl}-methanesulfonyl-amino)-propionic acid]	1000 to 30000
CCc1cc(C(=O)c2ccc(OC(F)(F)F)cc2)c(NC(=O)CSC(CC)C(=O)O)s1 (stereo not shown) [Example 127, 2-{[5-Ethyl-3-(4-trifluoromethoxy-benzoyl)-thiophen-2-ylcarbamoyl]-methylsulfanyl}-butyric acid]	< 100
CCc1cc(C(=O)c2ccc(OC(F)(F)F)cc2)c(NC(=O)CSC(C(=O)O)c2ccccc2)s1 (stereo not shown) [Example 128, {[5-Ethyl-3-(4-trifluoromethoxy-benzoyl)-thiophen-2-ylcarbamoyl]-methylsulfanyl}-phenyl-acetic acid]	100 to 1000
CCc1cc(C(=O)c2ccc(OC(C)C)c(Cl)c2)c(NC(=O)CSCC(=O)O)s1 [Example 130, {[3-(3-Chloro-4-isopropoxy-benzoyl)-5-ethyl-thiophen-2-ylcarbamoyl]-methylsulfanyl}-acetic acid]	100 to 1000
CCc1cc(C(=O)c2ccc(OC(F)(F)F)c(F)c2)c(NC(=O)CSCC(=O)O)s1 [Example 131, {[5-Ethyl-3-(3-fluoro-4-trifluoromethoxy-benzoyl)-thiophen-2-ylcarbamoyl]-methylsulfanyl}-acetic acid]	< 100
CC(C)c1cc(C(=O)c2ccc(OC(F)(F)F)cc2)c(NC(=O)CSCC(=O)O)s1 [Example 133, {[5-Isopropyl-3-(4-trifluoromethoxy-benzoyl)-thiophen-2-ylcarbamoyl]-methylsulfanyl}-acetic acid]	< 100
CCc1cc(C(=O)c2ccc(Cl)cc2)c(NC(=O)CSc2ccc(OCC(=O)O)cc2)s1 [Example 136, (4-{[3-(4-Chloro-benzoyl)-5-ethyl-thiophen-2-ylcarbamoyl]-methylsulfanyl}-phenoxy)-acetic acid]	1000 to 30000
CCc1cc(C(=O)c2ccc(F)cc2)c(NC(=O)CSc2ccc(OC(C)(C)C(=O)O)cc2)s1 [Example 137, 2-(4-{[5-Ethyl-3-(4-fluoro-benzoyl)-thiophen-2-ylcarbamoyl]-methylsulfanyl}-phenoxy)-2-methyl-propionic acid]	100 to 1000
CCc1cc(C(=O)c2ccc(Cl)cc2)c(NC(=O)CSc2ccc(OC(C)(C)C(=O)O)cc2)s1 [Example 138, 2-(4-{[3-(4-Chloro-benzoyl)-5-ethyl-thiophen-2-ylcarbamoyl]-methylsulfanyl}-phenoxy)-2-methyl-propionic acid]	100 to 1000
CCc1cc(C(=O)c2nc3ccccc3s2)c(NC(=O)CSCC(=O)O)s1 [Example 139, {[3-(Benzothiazole-2-carbonyl)-5-ethyl-thiophen-2-ylcarbamoyl]-methylsulfanyl}-acetic acid]	1000 to 30000

More lines, now with the values ahead:

EC50 [nM]	SMILES
100 to 1000	CCc1cc(C(=O)c2ccc(OC(F)(F)F)cc2)c(NC(=O)c2ccc(NCC(=O)O)cc2)s1 [Example 115, {4-[5-Ethyl-3-(4-trifluoromethoxy-benzoyl)-thiophen-2-ylcarbamoyl]-phenylamino}-acetic acid]
100 to 1000	CCc1cc(C(=O)c2ccc(OC(F)(F)F)cc2)c(NC(=O)c2ccc(CCC(=O)O)cc2)s1 [Example 116, 3-{4-[5-Ethyl-3-(4-trifluoromethoxy-benzoyl)-thiophen-2-ylcarbamoyl]-phenyl}-propionic acid]
1000 to 30000	CCc1cc(C(=O)c2ccc(OC(F)(F)F)cc2)c(NC(=O)COc2ccc(OCC(=O)O)cc2)s1 [Example 117, (4-{[5-Ethyl-3-(4-trifluoromethoxy-benzoyl)-thiophen-2-ylcarbamoyl]-methoxy}-phenoxy)-acetic acid]
< 100	CCc1cc(C(=O)c2ccc(OC(F)(F)F)cc2)c(NC(=O)C(CC)N2CCC[C@@H]2C(=O)O)s1 (stereo partly drawn) [Example 120, (R)-1-{1-[5-Ethyl-3-(4-trifluoromethoxy-benzoyl)-thiophen-2-ylcarbamoyl]-propyl}-pyrrolidine-2-carboxylic acid]
100 to 1000	CCc1cc(C(=O)c2ccc(OC(F)(F)F)cc2)c(NC(=O)C(NCC(=O)O)c2ccccc2)s1 (stereo not shown) [Example 122, ({[5-Ethyl-3-(4-trifluoromethoxy-benzoyl)-thiophen-2-ylcarbamoyl]-phenyl-methyl}-amino)-acetic acid]
100 to 1000	CCc1cc(C(=O)c2ccc(OC(F)(F)F)cc2)c(NC(=O)C(c2ccccc2)N2CCC[C@@H]2C(=O)O)s1 (stereo partly drawn) [Example 124, (R)-1-{[5-Ethyl-3-(4-trifluoromethoxy-benzoyl)-thiophen-2-ylcarbamoyl]-phenyl-methyl}-pyrrolidine-2-carboxylic acid]
100 to 1000	CCc1cc(C(=O)c2ccc(OC(F)(F)F)cc2)c(NC(=O)CN(CC)[C@@H](C)C(=O)O)s1 [Example 125, (S)-2-(Ethyl-{[5-ethyl-3-(4-trifluoromethoxy-benzoyl)-thiophen-2-ylcarbamoyl]-methyl}-amino)-propionic acid]
< 100	CCc1cc(C(=O)c2ccc(OC(F)(F)F)cc2)c(NC(=O)CS[C@@H](C)C(=O)O)s1 [Example 129, (S)-2-{[5-Ethyl-3-(4-trifluoromethoxy-benzoyl)-thiophen-2-ylcarbamoyl]-methylsulfanyl}-propionic acid]
< 100	CCCc1cc(C(=O)c2ccc(OC(F)(F)F)cc2)c(NC(=O)CSCC(=O)O)s1 [Example 132, {[5-Propyl-3-(4-trifluoromethoxy-benzoyl)-thiophen-2-ylcarbamoyl]-methylsulfanyl}-acetic acid]
100 to 1000	CCC(C)c1cc(C(=O)c2ccc(OC(F)(F)F)cc2)c(NC(=O)CSCC(=O)O)s1 (stereo not shown) [Example 134, {[5-sec-Butyl-3-(4-trifluoromethoxy-benzoyl)-thiophen-2-ylcarbamoyl]-methylsulfanyl}-acetic acid]
1000 to 30000	CCc1cc(C(=O)c2ccc(F)cc2)c(NC(=O)CSc2ccc(OCC(=O)O)cc2)s1 [Example 135, (4-{[5-Ethyl-3-(4-fluoro-benzoyl)-thiophen-2-ylcarbamoyl]-methylsulfanyl}-phenoxy)-acetic acid]
